Test results from patent publication EP3939578A1, “COMPOUNDS FOR TREATMENT OR PREVENTION OF AN INFECTION RESULTING FROM A CORONAVIRUS AND/OR A CORONAVIRUS-INDUCED DISEASE” (Novaremed Ltd., priority 2020, dated 2022).
Entries after “also recorded” stand apart in the source; their conditions may differ.

Columns and labels:
[1] = Dog bioavailability tests of polymorphs 1 and 2; format: in vivo; conditions: compared with polymorph 1
Source text: The bioavailability of polymorphs 1 and 2 has also been tested and made available in PCT/EP2020/051528 as Example 3 and is incorporated herein by reference.

[2] = Gravimetric Vapour Sorption (GVS); format: physicochemical
Experimental: Approximately 10 mg of sample was placed into a wire-mesh vapour sorption balance pan and loaded into an 'IgaSorp' vapour sorption balance (Hiden Analytical Instruments). The sample was then dried by maintaining a 0% humidity environment until no further weight change was recorded. Subsequently, the sample was subjected to a ramping profile from 0 - 90 % RH at 10 % RH increments, maintaining the sample at each step until equilibration had been attained (99% step completion). Upon reaching equilibration, the % RH within the apparatus was ramped to the next step and the equilibration procedure repeated. After completion of the sorption cycle, the sample was then dried using the same procedure. The weight change during the sorption/desorption cycles were then monitored, allowing for the hygroscopic nature of the sample to be determined.

C[C@H](O)COC[C@H](Cc1ccc(O)cc1)NC(=O)CCc1ccccc1 [polymorph 2, (S,S)-2-N(3-O-(propan-2-ol)-1-propyl-4-hydroxybenzene)-3-phenylpropylamide]
bioavailability [1]: higher than for polymorph 1; also recorded: better bioavailability as compared to polymorph 1; also recorded: exceptionally high | overall weight loss by the end of the two adsorption/desorption cycles ([2]; GVS, after two adsorption/desorption cycles, sharp weight loss at 90% RH): ~1% | weight gain to 80% RH ([2]; GVS, to 80% RH): 0.6% | change of polymorphic form (XRPD) after GVS ([2]; XRPD after two adsorption/desorption cycles): no change of polymorphic form

C[C@H](O)COC[C@H](Cc1ccc(O)cc1)NC(=O)CCc1ccccc1 [polymorph 1, (S,S)-2-N(3-O-(propan-2-ol)-1-propyl-4-hydroxybenzene)-3-phenylpropylamide]
rapid moisture uptake between 70% and 80% RH ([2]; GVS, between 70% and 80% RH, hysteresis between adsorption and desorption cycles): 5.6% | weight increase in second adsorption cycle ([2]; GVS, second adsorption cycle, at an RH of 40%, different form arising after the first cycle): > 2% | weight increase to 70% RH ([2]; GVS, to 70% RH): ~1.3%
